Legend:
Assay in all cases: NCI-60 SRB screening (one-dose and five-dose)
Format in all cases: cell-based, human
HT29 = details: 48 h
Method in brief: (§1)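 Growth inhibition is scored with sulforhodamine B after 48 h of continuous compound exposure. An MG_MID averages each parameter over the whole cell panel, insensitive lines being counted at the top tested concentration.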

SK-OV-3 = details: 48 h
Method in brief: (§2)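 Spectrophotometric SRB end point; 48-h drug exposure; percent of untreated-control growth reported.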

HCC-2998 = details: 48 h
Method in brief: as §1

NCI-H322M = details: 48 h
Method in brief: (§3)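 Test agents were applied at one concentration; 48 h later, sulforhodamine B staining quantified growth as a percentage of controls receiving no agent.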

MDA-MB-231/ATCC = details: 48 h
Method in brief: as §2

SW-620 = details: 48 h
Method in brief: as §2

NCI-H460 = details: 48 h
Method in brief: as §2

LOX IMVI = details: Homo sapiens, five dose 0.01–100 μM, 48 h
Method in brief: as §3

SR = details: 48 h
Method in brief: as §3

COLO 205 = details: 48 h
Method in brief: as §2

EKVX = details: 48 h
Method in brief: as §2

NCI/ADR-RES = details: 48 h
Method in brief: as §2

DU-145 = details: 48 h
Method in brief: as §1

SF-539 = details: 48 h
Method in brief: as §2

SK-MEL-5 = details: 48 h
Method in brief: as §2

KM-12 = details: 48 h
Method in brief: as §2

MCF7 = details: 48 h
Method in brief: as §2

TK-10 = details: 48 h
Method in brief: as §3

MDA-MB-468 = details: 48 h
Method in brief: as §2

SK-MEL-2 = details: 48 h
Method in brief: as §1

HOP-62 = details: 48 h
Method in brief: as §2

OVCAR-4 = details: 48 h
Method in brief: as §1

BT-549 = details: 48 h
Method in brief: as §3

HOP-92 = details: 48 h
Method in brief: as §1

A498 = details: 48 h
Method in brief: as §3

NCI-H23 = details: 48 h
Method in brief: as §1

CCRF-CEM = details: 48 h
Method in brief: as §1

NCI-H226 = details: 48 h
Method in brief: as §2

UACC-62 = details: 48 h
Method in brief: as §2

786-0 = details: 48 h
Method in brief: as §2

SF-268 = details: 48 h
Method in brief: as §3

OVCAR-5 = details: 48 h
Method in brief: as §2

SN12C = details: 48 h
Method in brief: as §3

PC-3 = details: 48 h
Method in brief: as §2

CAKI-1 = details: 48 h
Method in brief: as §1

MOLT-4 = details: 48 h
Method in brief: as §3

RXF 393 = details: 48 h
Method in brief: as §3

IGROV1 = details: 48 h
Method in brief: as §1

HL-60(TB) = details: 48 h
Method in brief: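 Cells are treated with test compound at a single concentration for 48 h, then stained with SRB; optical readings relative to untreated wells estimate viability or growth.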

K-562 = details: 48 h
Method in brief: as §3

[1] = Homo sapiens, five dose 0.01–100 μM

With `COC(=O)[C@]12CC[C@@H](C(=O)/C=C/c3cccnc3)[C@@H]1[C@H]1CC[C@@H]3[C@@]4(C)C/C(=C\c5cccnc5)C(=O)C(C)(C)[C@@H]4CC[C@@]3(C)[C@]1(C)CC2` [Compound 7, methyl 2,30-bis-(3-pyridinylidene)-3,20-dioxo-lup-28-oate] the “Growth Percent” value (HT29; HT29, 10 μM) was −45.47%, the GI50 (HT29; Homo sapiens, HT-29, HT29, five dose 0.01–100 μM) was 320 nM and the GI50 (SK-OV-3; Homo sapiens, SK-OV-3, five dose 0.01–100 μM) was 1430 nM. For the same molecule, the “Growth Percent” value (SK-OV-3; SK-OV-3, 10 μM) was −23.10%, the “Growth Percent” value (HCC-2998; HCC-2998, 10 μM) was −55.45% and the GI50 (HCC-2998; Homo sapiens, HCC-2998, five dose 0.01–100 μM) was 670 nM. The “Growth Percent” value (NCI-H322M; 10 μM) was −80.71%, the GI50 (NCI-H322M; [1]) was 1480 nM and the “Growth Percent” value (MDA-MB-231/ATCC; 10 μM) was −81.32%. For the same molecule, the GI50 (MDA-MB-231/ATCC; [1]) was 470 nM, the GI50 (SW-620; Homo sapiens, SW-620, five dose 0.01–100 μM) was 300 nM and the “Growth Percent” value (SW-620; SW-620, 10 μM) was −67.32%. For the same molecule, the GI50 (NCI-H460; Homo sapiens, NCI-H460, five dose 0.01–100 μM) was 830 nM, the “Growth Percent” value (NCI-H460; NCI-H460, 10 μM) was −78.43% and the GI50 (LOX IMVI) was 210 nM. For the same molecule, the “Growth Percent” value (SR; 10 μM) was −14.07%, the GI50 (SR; [1]) was 270 nM and the “Growth Percent” value (COLO 205; COLO 205, 10 μM) was −45.07%. The GI50 (COLO 205; Homo sapiens, COLO 205, five dose 0.01–100 μM) was 360 nM, the “Growth Percent” value (EKVX; 10 μM) was −76.32% and the GI50 (EKVX; [1]) was 410 nM. The “Growth Percent” value (NCI/ADR-RES; 10 μM) was −39.38%, the GI50 (NCI/ADR-RES; [1]) was 430 nM and the “Growth Percent” value (DU-145; DU-145, 10 μM) was −67.84%. For the same molecule, the GI50 (DU-145; Homo sapiens, DU-145, five dose 0.01–100 μM) was 1530 nM, the GI50 (SF-539; Homo sapiens, SF-539, five dose 0.01–100 μM) was 240 nM and the “Growth Percent” value (SF-539; SF-539, 10 μM) was −96.48%. For the same molecule, the GI50 (SK-MEL-5; Homo sapiens, SK-MEL-5, five dose 0.01–100 μM) was 460 nM, the “Growth Percent” value (SK-MEL-5; SK-MEL-5, 10 μM) was −98.85% and the GI50 (KM-12; Homo sapiens, KM12, KM-12, five dose 0.01–100 μM) was 1080 nM. The “Growth Percent” value (KM-12; KM-12, 10 μM) was −74.98%, the GI50 (MCF7; Homo sapiens, MCF7, five dose 0.01–100 μM) was 380 nM and the “Growth Percent” value (MCF7; MCF7, 10 μM) was −54.19%. The GI50 (TK-10; Homo sapiens, TK-10, five dose 0.01–100 μM) was 650 nM, the “Growth Percent” value (TK-10; TK-10, 10 μM) was −60.49% and the GI50 (MDA-MB-468; Homo sapiens, MDA-MB-468, five dose 0.01–100 μM) was 270 nM. For the same molecule, the “Growth Percent” value (MDA-MB-468; MDA-MB-468, 10 μM) was −76.12%, the GI50 (SK-MEL-2; Homo sapiens, SK-MEL-2, five dose 0.01–100 μM) was 470 nM and the “Growth Percent” value (SK-MEL-2; SK-MEL-2, 10 μM) was -61.15%. The “Growth Percent” value (HOP-62; HOP-62, 10 μM) was −85.57%, the GI50 (HOP-62; Homo sapiens, HOP-62, five dose 0.01–100 μM) was 690 nM and the GI50 (OVCAR-4; Homo sapiens, OVCAR-4, five dose 0.01–100 μM) was 340 nM. For the same molecule, the “Growth Percent” value (OVCAR-4; OVCAR-4, 10 μM) was −39.20%, the “Growth Percent” value (BT-549; BT-549, 10 μM) was −92.12% and the GI50 (BT-549; Homo sapiens, BT-549, five dose 0.01–100 μM) was 220 nM. The “Growth Percent” value (HOP-92; HOP-92, 10 μM) was −79.86%, the GI50 (HOP-92; Homo sapiens, HOP-92, five dose 0.01–100 μM) was 530 nM and the “Growth Percent” value (A498; A498, 10 μM) was −91.17%. The GI50 (A498; Homo sapiens, A498, five dose 0.01–100 μM) was 180 nM, the GI50 (NCI-H23; Homo sapiens, NCI-H23, five dose 0.01–100 μM) was 350 nM and the “Growth Percent” value (NCI-H23; NCI-H23, 10 μM) was −48.31%. The “Growth Percent” value (CCRF-CEM; 10 μM) was 0.95%, the GI50 (CCRF-CEM; [1]) was 310 nM and the GI50 (NCI-H226; Homo sapiens, NCI-H226, five dose 0.01–100 μM) was 1480 nM. For the same molecule, the “Growth Percent” value (NCI-H226; NCI-H226, 10 μM) was −44.44%, the GI50 (UACC-62; Homo sapiens, UACC-62, five dose 0.01–100 μM) was 400 nM and the “Growth Percent” value (UACC-62; UACC-62, 10 μM) was −67.85%. For the same molecule, the “Growth Percent” value (786-0; 786-0, 10 μM) was −92.26%, the GI50 (786-0; Homo sapiens, 786-0, five dose 0.01–100 μM) was 310 nM and the GI50 (SF-268; Homo sapiens, SF-268, five dose 0.01–100 μM) was 1010 nM. For the same molecule, the “Growth Percent” value (SF-268; SF-268, 10 μM) was −80.80%, the GI50 (OVCAR-5; Homo sapiens, OVCAR-5, five dose 0.01–100 μM) was 410 nM and the “Growth Percent” value (OVCAR-5; OVCAR-5, 10 μM) was −62.74%. The “Growth Percent” value (SN12C; 10 μM) was −77.80%, the GI50 (SN12C; [1]) was 390 nM and the GI50 (PC-3; Homo sapiens, PC-3, five dose 0.01–100 μM) was 420 nM. The “Growth Percent” value (PC-3; PC-3, 10 μM) was −14.12%, the “Growth Percent” value (CAKI-1; CAKI-1, 10 μM) was −78.75% and the GI50 (CAKI-1; Homo sapiens, CAKI-1, five dose 0.01–100 μM) was 1090 nM. For the same molecule, the GI50 (MOLT-4; Homo sapiens, MOLT-4, five dose 0.01–100 μM) was 300 nM, the “Growth Percent” value (MOLT-4; MOLT-4, 10 μM) was −31.34% and the GI50 (RXF 393; Homo sapiens, RXF 393, five dose 0.01–100 μM) was 270 nM. The “Growth Percent” value (RXF 393; RXF 393, 10 μM) was −93.62%, the GI50 (IGROV1; Homo sapiens, IGROV-1, IGROV1, five dose 0.01–100 μM) was 270 nM and the “Growth Percent” value (IGROV1; IGROV1, 10 μM) was −87.88%. The “Growth Percent” value (HL-60(TB); 10 μM) was −30.17%, the GI50 (HL-60(TB); [1]) was 250 nM and the GI50 (K-562; Homo sapiens, K562, K-562, five dose 0.01–100 μM) was 330 nM. The “Growth Percent” value (K-562; K-562, 10 μM) was −21.61%.
